{"source": "paper PMC9607545", "about": "“Cry4Aa and Cry4Ba Mosquito-Active Toxins Utilize Different Domains in Binding to a Particular Culex ALP Isoform: A Functional Toxin Receptor Implicating Differential Actions on Target Larvae” (Toxins, 2022)", "key": {"Cq-mALP1264": {"biological_target": "T1, Cq-mALP1264 (Culex quinquefasciatus, UniProt A0A9E8AEX0)", "T1 construct": "full-length ORF, 552 residues, ~61 kDa, 1656 bp cDNA from 4th instar larval midgut; N-terminal signal peptide and predicted GPI anchor; baculovirus (AcMNPV) expression in Sf9 cells", "T1 sequence (A0A9E8AEX0 21-552)": "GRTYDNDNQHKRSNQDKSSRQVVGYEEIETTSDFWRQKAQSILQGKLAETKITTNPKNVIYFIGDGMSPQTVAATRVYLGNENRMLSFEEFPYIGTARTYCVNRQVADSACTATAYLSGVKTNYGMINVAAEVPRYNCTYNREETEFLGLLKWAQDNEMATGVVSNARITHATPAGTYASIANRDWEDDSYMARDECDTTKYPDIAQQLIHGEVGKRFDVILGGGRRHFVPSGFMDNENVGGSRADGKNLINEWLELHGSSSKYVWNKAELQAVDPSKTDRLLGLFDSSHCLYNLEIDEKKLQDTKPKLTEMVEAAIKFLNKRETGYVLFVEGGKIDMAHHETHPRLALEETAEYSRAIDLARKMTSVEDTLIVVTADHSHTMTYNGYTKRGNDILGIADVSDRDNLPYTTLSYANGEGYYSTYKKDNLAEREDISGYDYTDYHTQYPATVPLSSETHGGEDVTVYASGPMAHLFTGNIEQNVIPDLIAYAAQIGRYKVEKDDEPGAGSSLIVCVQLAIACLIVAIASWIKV", "assay": "hydrolysis in Sf9 cell lysate, absorbance of p-nitrophenol at […] nm", "format": "biochemical", "conditions": "5 mM pNPP, 100 mM Tris-HCl pH 9.5, 5 mM MgCl2, 100 mM NaCl, 30 °C, 10 min; control: CAT-expressing lysate (endogenous ALP activity present)"}, "Cq-mALP1263": {"biological_target": "T2, Cq-mALP1263 (Culex quinquefasciatus, UniProt A0A9E8ACD0)", "T2 construct": "full-length ORF, 523 residues, ~57 kDa, 1569 bp cDNA from 4th instar larval midgut; N-terminal signal peptide and predicted GPI anchor; baculovirus (AcMNPV) expression in Sf9 cells", "T2 sequence (A0A9E8ACD0 19-523)": "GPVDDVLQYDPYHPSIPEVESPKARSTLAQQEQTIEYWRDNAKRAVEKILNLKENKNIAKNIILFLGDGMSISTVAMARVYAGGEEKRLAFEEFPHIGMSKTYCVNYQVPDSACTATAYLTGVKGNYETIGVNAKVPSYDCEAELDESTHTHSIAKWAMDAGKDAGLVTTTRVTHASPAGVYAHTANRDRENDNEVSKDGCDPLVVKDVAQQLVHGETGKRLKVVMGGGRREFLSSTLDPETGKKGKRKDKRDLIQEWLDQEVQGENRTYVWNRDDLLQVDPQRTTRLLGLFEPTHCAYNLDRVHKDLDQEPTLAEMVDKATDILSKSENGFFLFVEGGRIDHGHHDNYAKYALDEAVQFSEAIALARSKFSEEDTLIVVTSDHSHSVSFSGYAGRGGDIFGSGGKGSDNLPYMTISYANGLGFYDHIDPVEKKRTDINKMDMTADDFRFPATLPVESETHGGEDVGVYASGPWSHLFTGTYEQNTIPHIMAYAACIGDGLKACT", "assay": "hydrolysis in Sf9 cell lysate, absorbance of p-nitrophenol at […] nm", "format": "biochemical", "conditions": "5 mM pNPP, 100 mM Tris-HCl pH 9.5, 5 mM MgCl2, 100 mM NaCl, 30 °C, 10 min; control: CAT-expressing lysate (endogenous ALP activity present)"}}, "data": [{"smiles": "O=[N+]([O-])c1ccc(OP(=O)(O)O)cc1", "note": "[pNPP]", "values": [{"measurement": "hydrolysis in Sf9 cell lysate, absorbance of p-nitrophenol at 405 nm", "setting": "Cq-mALP1264", "value": "both Cq-mALP-expressed cells produced significantly higher ALP activity than CAT-expressed cells"}, {"measurement": "hydrolysis in Sf9 cell lysate, absorbance of p-nitrophenol at 405 nm", "setting": "Cq-mALP1263", "value": "both Cq-mALP-expressed cells produced significantly higher ALP activity than CAT-expressed cells"}]}]}
